Consider 25 compounds from ChEMBL document CHEMBL1147004, “Alkynyl pyrimidines as dual EGFR/ErbB2 kinase inhibitors” (Bioorg Med Chem Lett, 2006).

In general, IC50 refers to the concentration at which inhibition is half-maximal. The low end stands for inhibition by little substance, the high end for a need for much substance.

One series deals with BT-474. Briefly: Antiproliferative activity against human BT474 cell line.
Series [1] has as its target Receptor tyrosine-protein kinase erbB-2 (Homo sapiens, UniProt P04626). Briefly: Inhibition of ErbB2.
In another series the test system is HFF. Briefly: Antiproliferative activity against human HFF cell line.
A short description of series [2]: Permeability in PAMPA. It counts as ADME. The note with it: read-out: permeability.
The subject of the next series is HN5. Nature of the series: Antiproliferative activity against human HN5 cell line.
The target of series [3] is Epidermal growth factor receptor (Homo sapiens, UniProt P00533).
Chain of Epidermal growth factor receptor (P00533 whole entry): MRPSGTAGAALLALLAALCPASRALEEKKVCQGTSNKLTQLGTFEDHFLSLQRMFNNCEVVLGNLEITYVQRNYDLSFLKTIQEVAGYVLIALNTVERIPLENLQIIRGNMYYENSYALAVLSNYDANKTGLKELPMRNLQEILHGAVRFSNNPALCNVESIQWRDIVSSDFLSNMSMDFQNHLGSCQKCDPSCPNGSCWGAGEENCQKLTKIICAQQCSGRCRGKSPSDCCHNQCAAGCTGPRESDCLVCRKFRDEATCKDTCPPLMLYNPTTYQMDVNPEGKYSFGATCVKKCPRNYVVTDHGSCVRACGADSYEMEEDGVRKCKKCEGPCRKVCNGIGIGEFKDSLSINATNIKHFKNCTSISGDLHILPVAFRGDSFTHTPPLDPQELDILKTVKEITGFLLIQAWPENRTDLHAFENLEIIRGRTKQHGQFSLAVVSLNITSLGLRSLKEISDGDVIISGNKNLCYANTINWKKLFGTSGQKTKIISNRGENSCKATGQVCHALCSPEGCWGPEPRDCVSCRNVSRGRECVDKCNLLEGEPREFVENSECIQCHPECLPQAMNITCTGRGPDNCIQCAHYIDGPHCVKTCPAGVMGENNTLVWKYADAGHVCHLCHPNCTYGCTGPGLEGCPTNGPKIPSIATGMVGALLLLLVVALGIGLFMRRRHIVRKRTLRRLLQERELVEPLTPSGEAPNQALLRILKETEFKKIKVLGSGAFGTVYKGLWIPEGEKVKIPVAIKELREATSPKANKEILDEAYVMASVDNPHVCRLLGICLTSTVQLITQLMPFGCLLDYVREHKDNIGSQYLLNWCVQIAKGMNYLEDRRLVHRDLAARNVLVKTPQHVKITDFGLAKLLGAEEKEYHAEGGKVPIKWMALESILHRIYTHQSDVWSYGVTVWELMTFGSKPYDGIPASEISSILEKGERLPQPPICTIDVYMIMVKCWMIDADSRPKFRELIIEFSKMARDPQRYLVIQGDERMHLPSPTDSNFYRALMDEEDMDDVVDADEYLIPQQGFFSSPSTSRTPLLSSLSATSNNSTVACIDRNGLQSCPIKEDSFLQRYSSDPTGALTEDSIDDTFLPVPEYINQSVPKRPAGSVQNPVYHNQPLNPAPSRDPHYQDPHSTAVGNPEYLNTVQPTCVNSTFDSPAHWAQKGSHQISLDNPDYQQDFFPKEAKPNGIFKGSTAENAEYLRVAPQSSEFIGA

A value given as a limit tells only on which side of the number the result lay.

Chain of Receptor tyrosine-protein kinase erbB-2 (P04626 whole entry): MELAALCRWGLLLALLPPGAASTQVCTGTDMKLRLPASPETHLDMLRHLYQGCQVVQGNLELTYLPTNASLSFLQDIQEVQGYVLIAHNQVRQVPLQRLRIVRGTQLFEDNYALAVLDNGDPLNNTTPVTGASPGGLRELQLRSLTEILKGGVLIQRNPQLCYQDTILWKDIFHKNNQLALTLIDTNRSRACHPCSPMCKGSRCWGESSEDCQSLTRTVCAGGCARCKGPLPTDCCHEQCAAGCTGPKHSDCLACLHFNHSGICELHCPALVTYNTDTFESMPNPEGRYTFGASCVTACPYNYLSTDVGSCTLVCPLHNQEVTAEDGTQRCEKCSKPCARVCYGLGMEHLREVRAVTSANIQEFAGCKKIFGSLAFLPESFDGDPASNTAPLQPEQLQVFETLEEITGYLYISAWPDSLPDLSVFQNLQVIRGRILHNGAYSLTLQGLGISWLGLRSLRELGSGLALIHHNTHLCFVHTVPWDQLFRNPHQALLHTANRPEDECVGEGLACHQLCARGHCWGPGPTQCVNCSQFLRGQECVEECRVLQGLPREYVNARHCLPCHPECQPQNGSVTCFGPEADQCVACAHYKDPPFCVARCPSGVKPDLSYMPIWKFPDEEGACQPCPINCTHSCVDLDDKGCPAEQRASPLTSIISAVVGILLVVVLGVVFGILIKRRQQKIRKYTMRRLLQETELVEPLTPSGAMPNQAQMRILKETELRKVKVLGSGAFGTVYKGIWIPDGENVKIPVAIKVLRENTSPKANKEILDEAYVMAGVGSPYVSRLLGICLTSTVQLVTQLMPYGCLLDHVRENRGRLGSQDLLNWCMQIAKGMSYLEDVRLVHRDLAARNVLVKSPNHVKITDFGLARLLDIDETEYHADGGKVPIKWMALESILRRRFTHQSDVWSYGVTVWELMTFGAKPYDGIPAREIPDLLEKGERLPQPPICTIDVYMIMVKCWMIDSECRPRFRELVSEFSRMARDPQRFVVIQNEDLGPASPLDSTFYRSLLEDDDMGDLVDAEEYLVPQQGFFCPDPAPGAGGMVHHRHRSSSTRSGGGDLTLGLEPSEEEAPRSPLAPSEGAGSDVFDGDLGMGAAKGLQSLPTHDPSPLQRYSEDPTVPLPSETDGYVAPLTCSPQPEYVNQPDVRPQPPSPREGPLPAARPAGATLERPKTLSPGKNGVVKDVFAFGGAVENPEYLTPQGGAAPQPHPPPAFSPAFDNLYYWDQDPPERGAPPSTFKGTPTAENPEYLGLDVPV

With `CC(=O)Nc1cccc(C#Cc2cncnc2Nc2ccc(OCc3cccc(F)c3)c(Cl)c2)c1` [GW703087X], the IC50 was 21.6 µM with BT-474; 0.013 µM in series [1]; over 30 µM with HFF; 13.7 µM in the series on HN5; 0.012 µM in series [3]. For the same compound, the Papp in series [2] is under 0.3 ×10⁻⁶ cm/s.
As to `Nc1cccc(C#Cc2cncnc2Nc2ccc(OCc3cccc(F)c3)c(Cl)c2)c1`, the IC50 in series [1] amounted to 0.044 µM; in series [3] it was 0.042 µM.
The matching figures for `CS(=O)(=O)Nc1cccc(C#Cc2cncnc2Nc2ccc(OCc3cccc(F)c3)c(Cl)c2)c1`: 0.045 µM and 0.11 µM.
On to `Nc1nccc(C#Cc2cncnc2Nc2ccc(OCc3cccc(F)c3)c(Cl)c2)n1` [GW799251X], for which, in series [1], 0.012 µM corresponded to half-maximal inhibition (IC50). In other words, the double-digit nanomolar range.
On to `COC(=O)CCCC(=O)Nc1cccc(C#Cc2cncnc2Nc2ccc(OCc3cccc(F)c3)c(Cl)c2)c1`, for which the IC50 worked out at 4.24 µM in the series with BT-474; 0.029 µM in series [1]; 22.4 µM in the series with HFF; 3.47 µM with HN5; 0.031 µM in series [3].
On to `Fc1cccc(COc2ccc(Nc3ncncc3C#Cc3cccnc3)cc2Cl)c1`, for which the concentration for half-maximal inhibition (IC50) came to 0.14 µM in series [1] and 0.074 µM in series [3].
The matching figures for `Fc1cccc(COc2ccc(Nc3ncncc3C#Cc3cc[nH]n3)cc2Cl)c1`: 0.066 µM and 0.042 µM.
The matching figures for `Fc1cccc(COc2ccc(Nc3ncncc3C#Cc3ccccn3)cc2Cl)c1`: 0.055 µM and 0.017 µM.
For `Fc1cccc(COc2ccc(Nc3ccncn3)cc2Cl)c1` the same measures were 21 µM and 0.32 µM.
As for `CS(=O)(=O)CCC(=O)Nc1cccc(C#Cc2cncnc2Nc2ccc(OCc3cccc(F)c3)c(Cl)c2)c1`, the figures for the IC50 in series [1] and in series [3] were 0.032 µM and 0.05 µM, respectively.
The matching figures for `CC(=O)NCc1cccc(C#Cc2cncnc2Nc2ccc(OCc3cccc(F)c3)c(Cl)c2)c1` [GW807930X]: 0.052 µM and 0.06 µM.
The matching figures for `Nc1ccccc1C#Cc1cncnc1Nc1ccc(OCc2cccc(F)c2)c(Cl)c1`: 0.091 µM and 0.063 µM.
The matching figures for `Fc1cccc(COc2ccc(Nc3ncncc3C#Cc3ccccc3)cc2Cl)c1` [GW651576X]: 0.78 µM and 0.079 µM.
For the compound `CNC(=O)NCc1cccc(C#Cc2cncnc2Nc2ccc(OCc3cccc(F)c3)c(Cl)c2)n1`, the IC50 was 0.069 µM in series [1] and 0.023 µM in series [3].
For `OCc1nc(C#Cc2cncnc2Nc2ccc(OCc3cccc(F)c3)c(Cl)c2)cs1` the same measures were 0.16 µM and 0.076 µM.
In the case of `CS(=O)(=O)CCNC(=O)NCc1cccc(C#Cc2cncnc2Nc2ccc(OCc3cccc(F)c3)c(Cl)c2)n1`, the IC50 in the series with BT-474 is 0.84 µM; in series [1] it was 0.009 µM; in the series on HFF it was over 30 µM; with HN5, 0.77 µM; in series [3], 0.015 µM.
Take `OCc1cccc(C#Cc2cncnc2Nc2ccc(OCc3cccc(F)c3)c(Cl)c2)n1`: the IC50 with BT-474 is 5.79 µM; in series [1] it was 0.013 µM; in the series on HFF, over 30 µM.
As for `C#Cc1cncnc1Nc1ccc(OCc2cccc(F)c2)c(Cl)c1`, the figures for the IC50 in series [1] and in series [3] were 3.8 µM and 0.085 µM, respectively.
The matching figures for `NCc1cccc(C#Cc2cncnc2Nc2ccc(OCc3cccc(F)c3)c(Cl)c2)n1`: 0.038 µM and 0.021 µM.
For `CC(=O)Nc1ccc(C#Cc2cncnc2Nc2ccc(OCc3cccc(F)c3)c(Cl)c2)cc1` the same measures were 1.82 µM and 25.1 µM.
For `Fc1cccc(COc2ccc(Nc3ncncc3C#Cc3ncccn3)cc2Cl)c1` the same measures were 0.06 µM and 0.077 µM.
Turning to `CNC(=O)c1cccc(C#Cc2cncnc2Nc2ccc(OCc3cccc(F)c3)c(Cl)c2)c1` [GW772405X], the IC50 in series [1] worked out at 0.032 µM; in series [3], 0.079 µM.
The matching figures for `Nc1ccc(C#Cc2cncnc2Nc2ccc(OCc3cccc(F)c3)c(Cl)c2)cc1` [GW659893X]: 0.036 µM and 0.03 µM.
Turning to `OCc1ccc(C#Cc2cncnc2Nc2ccc(OCc3cccc(F)c3)c(Cl)c2)o1`, the IC50 with BT-474 was found to be 2.04 µM; in series [1], 0.047 µM; with HFF it was 15.8 µM; in the series on HN5, 0.93 µM; in series [3] it was 0.033 µM.
On to `CC(=O)Nc1cccc(C#Cc2cncnc2Nc2ccc(OCc3cccc(F)c3)c(Cl)c2)n1` [GW794726X], for which the results for the IC50 in series [1] and in series [3] were 0.059 µM and 0.091 µM, respectively.
